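Growth conditions: 96-well plates. Treatment: test compound, 48 hours, 5 concentrations. Analysis: linear interpolation between bracketing concentrations; unreached endpoints set to highest concentration. The concentration for full growth arrest is given as TGI.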
Experiments:
Experiment in all cases: NCI-60 cell line screen, 48 h
CCRF-CEM leukemia = system: CCRF-CEM leukemia
DMS 273 small cell lung = system: DMS 273 small cell lung
NCI-H460 lung = system: NCI-H460 lung
U251 CNS = system: U251 CNS
OVCAR-5 ovarian = system: OVCAR-5 ovarian
SNB-19 CNS = system: SNB-19 CNS
SR leukemia = system: SR leukemia
HT29 colon = system: HT29 colon
UACC-62 melanoma = system: UACC-62 melanoma
NCI-H522 lung = system: NCI-H522 lung
OVCAR-8 ovarian = system: OVCAR-8 ovarian
NCI-H226 lung = system: NCI-H226 lung
UACC-257 melanoma = system: UACC-257 melanoma
IGROV1 ovarian = system: IGROV1 ovarian
M19-MEL melanoma = system: M19-MEL melanoma
SF-295 CNS = system: SF-295 CNS
HCT-116 colon = system: HCT-116 colon
KM12 colon = system: KM12 colon
M14 melanoma = system: M14 melanoma
HL-60(TB) leukemia = system: HL-60(TB) leukemia
SK-MEL-28 melanoma = system: SK-MEL-28 melanoma
KM20L2 colon = system: KM20L2 colon
TK-10 renal = system: TK-10 renal
DMS 114 small cell lung = system: DMS 114 small cell lung
EKVX NSCLC = system: EKVX NSCLC
UO-31 renal = system: UO-31 renal
SF-268 CNS = system: SF-268 CNS
HOP-62 NSCLC = system: HOP-62 NSCLC
ACHN renal = system: ACHN renal
SK-OV-3 ovarian = system: SK-OV-3 ovarian
SNB-78 CNS = system: SNB-78 CNS
MOLT-4 leukemia = system: MOLT-4 leukemia
A498 renal = system: A498 renal
HOP-92 NSCLC = system: HOP-92 NSCLC
NCI-H23 lung = system: NCI-H23 lung
RXF 393 renal = system: RXF 393 renal
OVCAR-3 ovarian = system: OVCAR-3 ovarian
NCI/ADR-RES ovarian = system: NCI/ADR-RES ovarian
DU-145 prostate = system: DU-145 prostate
MCF7 breast = system: MCF7 breast
HS 578T breast = system: HS 578T breast
SK-MEL-2 melanoma = system: SK-MEL-2 melanoma
SNB-75 CNS = system: SNB-75 CNS
SK-MEL-5 melanoma = system: SK-MEL-5 melanoma
HCC-2998 colon = system: HCC-2998 colon
RPMI-8226 leukemia = system: RPMI-8226 leukemia
MDA-MB-435 = system: MDA-MB-435
HCT-15 colon = system: HCT-15 colon
BT-549 breast = system: BT-549 breast
SF-539 CNS = system: SF-539 CNS
CAKI-1 renal = system: CAKI-1 renal
PC-3 prostate = system: PC-3 prostate
SN12C renal = system: SN12C renal
SW-620 colon = system: SW-620 colon
MALME-3M melanoma = system: MALME-3M melanoma
T-47D breast = system: T-47D breast
MDA-N = system: MDA-N
MDA-MB-231 breast = system: MDA-MB-231 breast
OVCAR-4 ovarian = system: OVCAR-4 ovarian
K-562 leukemia = system: K-562 leukemia
COLO 205 colon = system: COLO 205 colon
A549 NSCLC = system: A549 NSCLC
LOX IMVI melanoma = system: LOX IMVI melanoma

SMILES: NC(CCCC(N)P(=O)(O)O)C(=O)O (stereo not drawn)
- TGI (CCRF-CEM leukemia): > 100 µM
- TGI (DMS 273 small cell lung): > 100 µM
- TGI (NCI-H460 lung): > 100 µM
- TGI (U251 CNS): > 100 µM
- TGI (OVCAR-5 ovarian): > 100 µM
- TGI (SNB-19 CNS): > 100 µM
- TGI (SR leukemia): > 100 µM
- TGI (HT29 colon): > 100 µM
- TGI (UACC-62 melanoma): > 100 µM
- TGI (NCI-H522 lung): > 100 µM
- TGI (OVCAR-8 ovarian): > 100 µM
- TGI (NCI-H226 lung): > 100 µM
- TGI (UACC-257 melanoma): > 100 µM
- TGI (IGROV1 ovarian): > 100 µM
- TGI (M19-MEL melanoma): > 100 µM
- TGI (SF-295 CNS): > 100 µM
- TGI (HCT-116 colon): > 100 µM
- TGI (KM12 colon): > 100 µM
- TGI (M14 melanoma): > 100 µM
- TGI (HL-60(TB) leukemia): > 100 µM
- TGI (SK-MEL-28 melanoma): > 100 µM
- TGI (KM20L2 colon): > 100 µM
- TGI (TK-10 renal): > 100 µM
- TGI (DMS 114 small cell lung): > 100 µM
- TGI (EKVX NSCLC): > 100 µM
- TGI (UO-31 renal): > 100 µM
- TGI (SF-268 CNS): > 100 µM
- TGI (HOP-62 NSCLC): > 100 µM
- TGI (ACHN renal): > 100 µM
- TGI (SK-OV-3 ovarian): > 100 µM
- TGI (SNB-78 CNS): > 100 µM
- TGI (MOLT-4 leukemia): > 100 µM
- TGI (A498 renal): > 100 µM
- TGI (HOP-92 NSCLC): > 100 µM
- TGI (NCI-H23 lung): > 100 µM
- TGI (RXF 393 renal): > 100 µM

SMILES: NC(Cc1ccc(OCc2ccccc2)cc1)C(=O)NC(Cc1ccccc1)C(=O)Oc1c(Cl)c(Cl)c(Cl)c(Cl)c1Cl (stereo not drawn)
- TGI (OVCAR-3 ovarian): 28.9 µM
- TGI (NCI/ADR-RES ovarian): 40.7 µM
- TGI (CCRF-CEM leukemia): > 100 µM
- TGI (DU-145 prostate): 27 µM
- TGI (NCI-H460 lung): 30.5 µM
- TGI (MCF7 breast): 36 µM
- TGI (U251 CNS): 31.2 µM
- TGI (OVCAR-5 ovarian): 31.1 µM
- TGI (SNB-19 CNS): 34 µM
- TGI (HS 578T breast): 31 µM
- TGI (SK-MEL-2 melanoma): 26.5 µM
- TGI (SR leukemia): > 100 µM
- TGI (SNB-75 CNS): 29.6 µM
- TGI (HT29 colon): 32.1 µM
- TGI (UACC-62 melanoma): 32.7 µM
- TGI (SK-MEL-5 melanoma): 32.4 µM
- TGI (HCC-2998 colon): 34 µM
- TGI (NCI-H522 lung): 42.3 µM
- TGI (OVCAR-8 ovarian): 31.8 µM
- TGI (NCI-H226 lung): 26.5 µM
- TGI (RPMI-8226 leukemia): > 100 µM
- TGI (UACC-257 melanoma): 32.8 µM
- TGI (IGROV1 ovarian): 31.4 µM
- TGI (HCT-116 colon): 31.3 µM
- TGI (KM12 colon): 28.8 µM
- TGI (M14 melanoma): 28.5 µM
- TGI (MDA-MB-435): 33.9 µM
- TGI (HL-60(TB) leukemia): > 100 µM
- TGI (SK-MEL-28 melanoma): 31.6 µM
- TGI (TK-10 renal): 28.9 µM
- TGI (HCT-15 colon): 30.2 µM
- TGI (BT-549 breast): 32.7 µM
- TGI (EKVX NSCLC): 41.6 µM
- TGI (UO-31 renal): 30.4 µM
- TGI (SF-539 CNS): 30.6 µM
- TGI (SF-268 CNS): 38.9 µM
- TGI (CAKI-1 renal): 30.7 µM
- TGI (PC-3 prostate): 32.4 µM
- TGI (SN12C renal): 32 µM
- TGI (HOP-62 NSCLC): 30.5 µM
- TGI (ACHN renal): 30.5 µM
- TGI (SW-620 colon): 31.7 µM
- TGI (MALME-3M melanoma): 35.3 µM
- TGI (T-47D breast): 37.1 µM
- TGI (MDA-N): 26.8 µM
- TGI (MDA-MB-231 breast): 25.7 µM
- TGI (OVCAR-4 ovarian): 35.5 µM
- TGI (SK-OV-3 ovarian): 28.9 µM
- TGI (K-562 leukemia): > 100 µM
- TGI (COLO 205 colon): 28.3 µM
- TGI (MOLT-4 leukemia): > 100 µM
- TGI (A498 renal): 37.9 µM
- TGI (HOP-92 NSCLC): 25.8 µM
- TGI (A549 NSCLC): 37.5 µM
- TGI (NCI-H23 lung): 30.6 µM
- TGI (RXF 393 renal): 28.3 µM
- TGI (LOX IMVI melanoma): 27.1 µM
